Target: human Kv1.3 (Homo sapiens (Human), UniProt P22001)
Assay: Kv1.3 potency evaluation, automated patch clamp electrophysiology (QPatch HT) in CHO-Kv1.3 cells
Type: cell-based
Conditions: whole-cell QPatch HT, % inhibition of charge, step to +30 mV, four concentrations, N≥3 cells, read-out: hKv1.3 IC50
How it was run: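 Automated whole-cell patch clamp in CHO cells stably expressing human Kv1.3; steps from −80 to +30 mV (500 ms) at 0.067 Hz. Four cumulative concentrations after vehicle (0.1-0.3% DMSO); charge inhibition vs vehicle fitted by four-parameter logistic for IC50, N≥3 cells.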

human Kv1.3, sequence (P22001 whole entry): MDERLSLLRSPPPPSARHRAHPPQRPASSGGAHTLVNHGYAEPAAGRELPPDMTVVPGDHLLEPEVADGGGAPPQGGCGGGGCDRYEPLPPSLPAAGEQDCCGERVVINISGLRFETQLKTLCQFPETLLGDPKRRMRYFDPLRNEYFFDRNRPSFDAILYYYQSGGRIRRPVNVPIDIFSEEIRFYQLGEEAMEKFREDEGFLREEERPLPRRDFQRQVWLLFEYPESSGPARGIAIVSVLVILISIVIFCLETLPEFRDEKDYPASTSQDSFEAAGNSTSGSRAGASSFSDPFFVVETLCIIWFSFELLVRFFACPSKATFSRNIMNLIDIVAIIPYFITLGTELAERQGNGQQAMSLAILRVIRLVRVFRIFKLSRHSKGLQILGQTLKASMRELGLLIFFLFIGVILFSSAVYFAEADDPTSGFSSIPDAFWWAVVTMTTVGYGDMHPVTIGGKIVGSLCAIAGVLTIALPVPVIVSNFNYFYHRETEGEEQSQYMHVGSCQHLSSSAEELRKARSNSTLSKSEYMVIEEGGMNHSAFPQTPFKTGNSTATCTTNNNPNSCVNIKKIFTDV

IC50 | Structure (SMILES)
163 nM | CCCS(=O)(=O)N(Cc1ccc(Cl)c(Cl)c1)C12CC(C3=NC(C)(C)[C@H](C(=O)NCCCC(F)(F)F)N3)(C1)C2 (mixture of isomers) [Example 216]
167 nM | CC1(C)N=C(C23CC(N(Cc4ccc(C(F)(F)F)cc4)S(=O)(=O)c4ccc(F)cc4)(C2)C3)N[C@H]1C(=O)NCCC(F)(F)F (mixture of isomers) [Example 217]
168 nM | C[C@]1(C(=O)NCC2CC2)CN=C(C23CC(N(Cc4ccc(C(F)(F)F)cc4)S(=O)(=O)c4ccc(F)cc4)(C2)C3)N1 (mixture of isomers) [Example 218]
168 nM | Cc1ccccc1S(=O)(=O)N(Cc1ccc(Cl)cc1)C12CC(C3=NC(C)(C)[C@H](C(=O)NCCC(F)(F)F)N3)(C1)C2 (mixture of isomers) [Example 219]
169 nM | CC1(C)N=C(C23CC(N(Cc4ccc(C(F)(F)F)c(Cl)c4)S(=O)(=O)c4ccccc4)(C2)C3)N[C@H]1C(=O)NCCC(F)(F)F (mixture of isomers) [Example 221]
170 nM | CC(F)(F)CCS(=O)(=O)N(Cc1ccc(Cl)c(F)c1)C12CC(C3=NC(C)(C)[C@H](C(=O)NCC(F)(F)C(F)(F)F)N3)(C1)C2 (mixture of isomers) [Example 222]
177 nM | CC1(C)N=C(C23CC(N(Cc4ccc(Cl)c(C#N)c4)S(=O)(=O)c4ccccc4)(C2)C3)N[C@H]1C(=O)NCCC(F)(F)F (mixture of isomers) [Example 223]
182 nM | CC1(C)N=C(C23CC(N(Cc4ccc(Cl)c(F)c4)S(=O)(=O)c4ccccc4O)(C2)C3)N[C@H]1C(=O)NCCC(F)(F)F (mixture of isomers) [Example 225]
185 nM | CC1(C)N=C(C23CC(N(Cc4ccc(Cl)c(Cl)c4)S(=O)(=O)c4ccccc4O)(C2)C3)N[C@H]1C(=O)NCCC(F)(F)F (mixture of isomers) [Example 226]
186 nM | C[C@]1(C(=O)NCC2CC(F)(F)C2)CN=C(C23CC(N(Cc4ccc(C(F)(F)F)cc4)S(=O)(=O)c4ccc(F)cc4)(C2)C3)N1 (mixture of isomers) [Example 227]
190 nM | CC1(NC(=O)[C@@]2(C)CN=C(C34CC(N(Cc5ccc(C(F)(F)F)cc5)S(=O)(=O)c5ccc(F)cc5)(C3)C4)N2)CCC1 (mixture of isomers) [Example 228]
201 nM | CN(C)C(=O)[C@]1(C)CN=C(C23CC(N(Cc4ccc(C(F)(F)F)cc4)S(=O)(=O)c4ccc(F)cc4)(C2)C3)N1 (mixture of isomers) [Example 230]
205 nM | CC1(C)N=C(C23CC(N(Cc4ccc(Cl)cc4)S(=O)(=O)CC4CC(F)(F)C4)(C2)C3)N[C@H]1C(=O)NCCC(F)(F)F (mixture of isomers) [Example 231]
209 nM | CC1(C)N=C(C23CC(N(Cc4ccc(Cl)c(F)c4)S(=O)(=O)c4ccccc4)(C2)C3)N[C@H]1C(=O)NCC(O)C(F)(F)F (mixture of isomers) [Example 233]
211 nM | C[C@]1(C(=O)N2CC3CC3C2)CN=C(C23CC(N(Cc4ccc(C(F)(F)F)cc4)S(=O)(=O)c4ccc(F)cc4)(C2)C3)N1 (mixture of isomers) [Example 234]
221 nM | CC(NC(=O)[C@@]1(C)CN=C(C23CC(N(Cc4ccc(C(F)(F)F)cc4)S(=O)(=O)c4ccc(F)cc4)(C2)C3)N1)C1CCC1 (mixture of isomers) [Example 238]
235 nM | CC(C)NC(=O)[C@H]1NC(C23CC(N(Cc4ccc(Cl)c(F)c4)S(=O)(=O)c4ccccc4)(C2)C3)=NC1(C)C (mixture of isomers) [Example 240]
243 nM | Cn1ccc(S(=O)(=O)N(Cc2ccc(Cl)cc2)C23CC(C4=NC(C)(C)[C@H](C(=O)NCCC(F)(F)F)N4)(C2)C3)n1 (mixture of isomers) [Example 241]
248 nM | CC1(C)N=C(C23CC(N(Cc4ccc(Cl)c(F)c4)S(=O)(=O)c4ccccc4)(C2)C3)N[C@H]1C(=O)NC12CC(C(F)(F)F)(C1)C2 (mixture of isomers) [Example 242]
251 nM | CC(C)NC(=O)[C@@]1(C)CN=C(C23CC(N(Cc4ccccc4)S(=O)(=O)c4ccc(F)cc4)(C2)C3)N1 (mixture of isomers) [Example 243]
252 nM | C[C@]1(C(=O)N2CCCCC2)CN=C(C23CC(N(Cc4ccc(C(F)(F)F)cc4)S(=O)(=O)c4ccc(F)cc4)(C2)C3)N1 (mixture of isomers) [Example 244]
253 nM | CC1N=C(C23CC(N(Cc4ccc(C(F)(F)F)cc4)S(=O)(=O)c4ccc(F)cc4)(C2)C3)N[C@@]1(C)C(=O)NCC1CCC1 (mixture of isomers) [Example 245]
258 nM | CC1(C)N=C(C23CC(N(Cc4ccc(C#N)cc4)S(=O)(=O)c4ccccc4)(C2)C3)N[C@H]1C(=O)NCCC(F)(F)F (mixture of isomers) [Example 246]
262 nM | C[C@@]1(C(=O)NCC2CCC2)CN=C(C23CC(N(Cc4ccc(C(F)(F)F)cc4)S(=O)(=O)c4ccc(F)cc4)(C2)C3)N1 (mixture of isomers) [Example 247]
275 nM | CC1(C)N=C(C23CC(N(Cc4ccc(Cl)c(F)c4)S(=O)(=O)c4ccccc4)(C2)C3)N[C@@H]1C(=O)N1CCC(F)(F)CC1 (mixture of isomers) [Example 248]

IC50 | Structure (SMILES)
280 nM | CC1(C)N=C(C23CC(N(Cc4ccc(Cl)c(F)c4)S(=O)(=O)c4ccccc4)(C2)C3)N[C@H]1C(=O)N1CC2(CCC2(F)F)C1 (mixture of isomers) [Example 249]
286 nM | CC(C)NC(=O)[C@@]1(C)CN=C(C23CC(N(Cc4ccc(C(F)(F)F)cc4)S(=O)(=O)c4ccc(F)cc4)(C2)C3)N1 (mixture of isomers) [Example 250]
307 nM | CC1(C)N=C(C23CC(N(Cc4ccc(C(F)(F)F)cc4)S(=O)(=O)c4ccc(F)cc4)(C2)C3)N[C@@H]1C(=O)NCCC(F)(F)F (mixture of isomers) [Example 251]
317 nM | CC(C)S(=O)(=O)N(Cc1ccc(Cl)cc1)C12CC(C3=NC(C)(C)[C@H](C(=O)NCCC(F)(F)F)N3)(C1)C2 (mixture of isomers) [Example 252]
323 nM | C[C@]1(C(=O)N2CC3(CCC3)C2)CN=C(C23CC(N(Cc4ccc(C(F)(F)F)cc4)S(=O)(=O)c4ccc(F)cc4)(C2)C3)N1 (mixture of isomers) [Example 253]
333 nM | CC(C)NC(=O)[C@@]1(C)CN=C(C23CC(N(Cc4ccc(C(F)(F)F)cc4)S(=O)(=O)c4ccccc4)(C2)C3)N1 (mixture of isomers) [Example 254]
341 nM | CC1(C)N=C(C23CC(N(Cc4ccc(C(F)(F)F)cc4)S(=O)(=O)c4ccc(F)cc4)(C2)C3)N[C@@]1(C)C(=O)NCCC(F)(F)F (mixture of isomers) [Example 255]
342 nM | CN(CC1CCC1)C(=O)[C@@]1(C)CN=C(C23CC(N(Cc4ccc(C(F)(F)F)cc4)S(=O)(=O)c4ccc(F)cc4)(C2)C3)N1 (mixture of isomers) [Example 256]
348 nM | CC1(C)N=C(C23CC(N(Cc4ccc(Cl)c(F)c4)S(=O)(=O)c4ccccc4)(C2)C3)N[C@H]1C(=O)N1CCOCC1 (mixture of isomers) [Example 257]
362 nM | CC(C)NC(=O)[C@@]1(C)CN=C(C23CC(N(Cc4ccccc4)S(=O)(=O)c4ccccc4)(C2)C3)N1 (mixture of isomers) [Example 258]
370 nM | C[C@]1(C(=O)NCC(F)(F)F)CN=C(C23CC(N(Cc4ccc(C(F)(F)F)cc4)S(=O)(=O)c4ccc(F)cc4)(C2)C3)N1 (mixture of isomers) [Example 260]
386 nM | COCCS(=O)(=O)N(Cc1ccc(Cl)cc1)C12CC(C3=NC(C)(C)[C@H](C(=O)NCCC(F)(F)F)N3)(C1)C2 (mixture of isomers) [Example 261]
395 nM | C[C@]1(C(=O)N2CCCC2)CN=C(C23CC(N(Cc4ccc(C(F)(F)F)cc4)S(=O)(=O)c4ccc(F)cc4)(C2)C3)N1 (mixture of isomers) [Example 262]
404 nM | CC1(C)CCN(C(=O)[C@@]2(C)CN=C(C34CC(N(Cc5ccc(C(F)(F)F)cc5)S(=O)(=O)c5ccc(F)cc5)(C3)C4)N2)C1 (mixture of isomers) [Example 264]
408 nM | CC1N=C(C23CC(N(Cc4ccc(C(F)(F)F)cc4)S(=O)(=O)c4ccc(F)cc4)(C2)C3)N[C@@]1(C)C(=O)NCCC(F)(F)F (mixture of isomers) [Example 265]
424 nM | CC1(CNC(=O)[C@@]2(C)CN=C(C34CC(N(Cc5ccc(C(F)(F)F)cc5)S(=O)(=O)c5ccc(F)cc5)(C3)C4)N2)CCC1 (mixture of isomers) [Example 267]
441 nM | C[C@]1(C(=O)NC2CCCCC2)CN=C(C23CC(N(Cc4ccc(C(F)(F)F)cc4)S(=O)(=O)c4ccc(F)cc4)(C2)C3)N1 (mixture of isomers) [Example 268]
481 nM | CN(C)C(=O)[C@@]1(C)CN=C(C23CC(N(Cc4ccc(C(F)(F)F)cc4)S(=O)(=O)c4ccc(F)cc4)(C2)C3)N1 (mixture of isomers) [Example 269]
485 nM | C[C@]1(C(=O)NCc2ccccc2)CN=C(C23CC(N(Cc4ccc(C(F)(F)F)cc4)S(=O)(=O)c4ccc(F)cc4)(C2)C3)N1 (mixture of isomers) [Example 270]
524 nM | CC1(C)N=C(C23CC(N(Cc4ccc(Cl)cc4)S(=O)(=O)C4CCOCC4)(C2)C3)N[C@H]1C(=O)NCCC(F)(F)F (mixture of isomers) [Example 272]
559 nM | CC1(C)N=C(C23CC(N(Cc4ccc(Cl)cc4)S(C)(=O)=O)(C2)C3)N[C@H]1C(=O)NCCC(F)(F)F (mixture of isomers) [Example 274]
571 nM | CC(NC(=O)[C@@]1(C)CN=C(C23CC(N(Cc4ccc(C(F)(F)F)cc4)S(=O)(=O)c4ccc(F)cc4)(C2)C3)N1)C1CCC1 (mixture of isomers) [Example 275]
575 nM | CC1(C)N=C(C23CC(N(Cc4ccc(Cl)cc4)S(=O)(=O)CC(F)(F)F)(C2)C3)N[C@H]1C(=O)NCCC(F)(F)F (mixture of isomers) [Example 276]
595 nM | C[C@]1(C(=O)NCCC2CCC2)CN=C(C23CC(N(Cc4ccc(C(F)(F)F)cc4)S(=O)(=O)c4ccc(F)cc4)(C2)C3)N1 (mixture of isomers) [Example 278]
